Tests used:
Format in all cases: cell-based, Bacillus megaterium
B. megaterium SR7 [1] = assay: Biolog GenIII sole carbon source growth; conditions: for Growth on Biolog sole carbon source, SR7: no metals added, Table 10; for Growth in carbon source Biolog plate, +Metals: trace metals-amended plate; for Growth in carbon source Biolog plate, +Metals / Growth in carbon source Biolog plate, I / Growth in carbon source Biolog plate, II: Table 11; for Growth in carbon source Biolog plate, I: unamended plate trial I; for Growth in carbon source Biolog plate, II: unamended plate trial II
Procedure: (§1) Plates were incubated at 37° C. on a plate shaker at 200 rpm and assayed for growth using NADH-dependent colorimetric changes measured by OD490 on a microplate reader (BioTek Synergy 2; BioTek; Winooski, Vt.).

B. megaterium DSM319 = assay: Biolog GenIII sole carbon source growth; conditions: no metals added; Table 10
Procedure: as §1

B. megaterium QM B1551 = assay: Biolog GenIII sole carbon source growth; conditions: no metals added; Table 10
Procedure: as §1

B. megaterium SR7 [2] = assay: SR7 antibiotic sensitivity in LB (OD600 vs unamended control); conditions: for % Control: (OD600 AB/OD600 Control)*100 in LB, average n = 2, 24 hours, 37° C.; for Sensitivity: LB
Procedure: To help guide optimization of growth conditions for strain SR7, physiological tests were conducted under aerobic conditions. To determine tolerance for pH, salinity and bicarbonate, high throughput culturing was done in 96 well plates and scored for growth by OD600 using a microplate reader (BioTek Synergy 2; BioTek; Winooski, Vt.). 200 uL LB solutions/well were inoculated in triplicate with 10^4 spores/ml (based on SR7 spore stock filter counts) and incubated on a plate rocker at 37° C. with unamended positive and cell-free negative LB controls. Tests for pH tolerance (pH 2-10) were conducted in LB medium amended with HCl or NaOH. The effect of salinity and bicarbonate on growth was determined by adding NaCl (1-10%) and NaHCO3 (0.1-0.5M), respectively, to LB media. Optimal SR7 growth temperature was tested by inoculating 10^4 spores/ml in 5 ml of LB in triplicate at temperatures of 9-55° C. Cultures and cell-free negative controls were incubated without shaking, with subsamples taken for periodic OD600 measurements. SR7 antibiotic sensitivity was determined by supplementing 5 ml LB with ampicillin (5-50 μg/ml), chloramphenicol (3.5-35 μg/ml), kanamycin (5-50 μg/ml), spectinomycin (10-100 μg/ml), streptomycin (10-100 μg/ml), or tetracycline (1.5-15 μg/ml).

B. megaterium SR7 [3] = assay: Biolog GenIII Microplate growth sensitivity assay; conditions: for % Control: (OD490 AB/OD490 Control)*100 for Biolog, average n = 2, Biolog does not publish concentrations; for Sensitivity: Biolog, concentration not published; for SR7 growth inhibition in Biolog assays: result in words; for sensitivity: key: S = sensitive; R = resistant
Procedure: as §1

Compound	Growth in carbon source Biolog plate, +Metals (B. megaterium SR7 [1])	Growth in carbon source Biolog plate, I (B. megaterium SR7 [1])	Growth in carbon source Biolog plate, II (B. megaterium SR7 [1])	% Control (B. megaterium SR7 [3]) [%]	Sensitivity (B. megaterium SR7 [3])	other results
CC(O)CC(=O)O (racemic) [β-Hydroxy-D,L-Butyric Acid]	+	+	+			Growth on Biolog sole carbon source, SR7 (B. megaterium SR7 [1]): +; Growth on Biolog sole carbon source, DSM319 (B. megaterium DSM319): +; Growth on Biolog sole carbon source, QM B1551 (B. megaterium QM B1551): +++
CC1(C)S[C@@H]2[C@H](NC(=O)[C@H](N)c3ccccc3)C(=O)N2[C@H]1C(=O)O [Ampicilin]						% Control (B. megaterium SR7 [2]; 50 ug/mL): 8%; Sensitivity (B. megaterium SR7 [2]; 50 ug/mL): S
C[C@H]1[C@H](NC(=O)/C(=N\OC(C)(C)C(=O)O)c2csc(N)n2)C(=O)N1S(=O)(=O)O [Aztreonam]				10	S	
O=C(O)CC(Br)C(=O)O (centres unmarked) [Bromo-Succinic Acid]	+	+	+			Growth on Biolog sole carbon source, SR7 (B. megaterium SR7 [1]): +; Growth on Biolog sole carbon source, DSM319 (B. megaterium DSM319): +++; Growth on Biolog sole carbon source, QM B1551 (B. megaterium QM B1551): +
O=C(N[C@H](CO)[C@H](O)c1ccc([N+](=O)[O-])cc1)C(Cl)Cl [Chloramphenicol]						% Control (B. megaterium SR7 [2]; 35 ug/mL): 9%; Sensitivity (B. megaterium SR7 [2]; 35 ug/mL): S
O=C(O)[C@H](O)[C@@H](O)[C@H](O)[C@H](O)CO [D-Gluconic Acid]	+++	+	+			Growth on Biolog sole carbon source, SR7 (B. megaterium SR7 [1]): +; Growth on Biolog sole carbon source, DSM319 (B. megaterium DSM319): +++; Growth on Biolog sole carbon source, QM B1551 (B. megaterium QM B1551): +
N[C@H](CO)C(=O)O [D-Serine, reference compound]	−	−	−	10	S	SR7 growth inhibition in Biolog assays (B. megaterium SR7 [3]): inhibited
CC(=O)O[C@H]1C[C@@]2(C)[C@@H](C[C@@H](O)[C@H]3[C@@]4(C)CC[C@@H](O)[C@@H](C)[C@@H]4CC[C@@]32C)/C1=C(\CCC=C(C)C)C(=O)O [Fusidic Acid]				9	S	
NC[C@H]1O[C@H](O[C@H]2[C@H](O)[C@@H](O[C@H]3O[C@H](CO)[C@@H](O)[C@H](N)[C@H]3O)[C@H](N)C[C@@H]2N)[C@H](O)[C@@H](O)[C@@H]1O [Kanamycin]						% Control (B. megaterium SR7 [2]; 5 ug/mL): 9%; Sensitivity (B. megaterium SR7 [2]; 5 ug/mL): S
CCC[C@@H]1C[C@@H](C(=O)N[C@@H]([C@H]2O[C@H](SC)[C@H](O)[C@@H](O)[C@H]2O)[C@@H](C)O)N(C)C1 [Lincomycin]				11	S	
CN(C)c1ccc(O)c2c1C[C@H]1C[C@H]3[C@H](N(C)C)C(O)=C(C(N)=O)C(=O)[C@@]3(O)C(O)=C1C2=O [Minocycline]					S	
CC(=O)N[C@H]1[C@@H](O)[C@H](O)[C@@H](CO)O[C@H]1O [N-Acetyl-β-D-Mannosamine]	−	−	−			
CCn1cc(C(=O)O)c(=O)c2ccc(C)nc21 [Nalidixic Acid]				14	S	
CCCCC(CC)CCC(CC(C)C)OS(=O)(=O)[O-].[Na+] (centres unmarked) [Niaproof 4]				9	S	SR7 growth inhibition in Biolog assays (B. megaterium SR7 [3]): inhibited
CCC(=O)O [Propionic Acid]	−	−	+			
O=C(O)[C@]1(O)C[C@@H](O)[C@@H](O)[C@H](O)C1 [Quinic Acid]	−	−	+			
CO[C@H]1/C=C/O[C@@]2(C)Oc3c(C)c([O-])c4c(O)c(cc(O)c4c3C2=O)NC(=O)/C(C)=C\C=C\[C@H](C)[C@H](O)[C@@H](C)[C@@H](O)[C@@H](C)[C@H](OC(C)=O)[C@@H]1C.[Na+] [Rifamycin SV]				11	S	
